Molecular target: T1, human mAChR M4 (Homo sapiens, UniProt P08173)
T1 construct: expressed in transfected cells
T1 sequence (P08173 1-479): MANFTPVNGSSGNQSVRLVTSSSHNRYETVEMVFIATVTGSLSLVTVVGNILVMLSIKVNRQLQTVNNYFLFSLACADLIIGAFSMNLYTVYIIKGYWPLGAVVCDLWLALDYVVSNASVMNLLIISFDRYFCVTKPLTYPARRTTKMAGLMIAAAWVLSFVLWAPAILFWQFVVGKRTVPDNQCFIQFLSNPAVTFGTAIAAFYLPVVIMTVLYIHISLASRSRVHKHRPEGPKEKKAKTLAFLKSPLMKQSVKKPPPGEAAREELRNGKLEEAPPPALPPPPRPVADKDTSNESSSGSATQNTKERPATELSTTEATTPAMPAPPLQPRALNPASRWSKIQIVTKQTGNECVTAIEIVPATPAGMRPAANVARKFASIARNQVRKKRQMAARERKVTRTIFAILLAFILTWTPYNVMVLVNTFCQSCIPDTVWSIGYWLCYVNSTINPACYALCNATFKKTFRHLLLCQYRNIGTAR
Assay: mAChR M4 cell-based functional assay (calcium mobilization, CHO-K1 hM4-Gqi5 cells)
Details: for EC50: positive allosteric modulator activity, increase in the EC20 acetylcholine response, CHO-K1 hM4-Gqi5 cells, read-out: Human M4 EC50
Method in brief: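 CHO-K1 cells stably expressing human M4 with chimeric Gqi5, loaded with Fluo-4 AM; compounds given as 11-point 1:3 curves and calcium flux read on FDSS at 1 Hz. Acetylcholine EC20 added at 144 s, EC80 at 230 s; agonist, PAM (EC20 potentiation) and antagonist (EC80 inhibition) EC50/Emax from four-parameter fits.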

[1] = CHO-K1, % ACh maximum at 30 μM, human M4

Structure (SMILES): Cc1nc(C)c(C)c(N2CCc3ncc(Nc4cccnc4F)cc3C2)n1 [compound 240, N-(2-fluoropyridin-3-yl)-6-(2,5,6-trimethylpyrimidin-4-yl)-5,6,7,8-tetrahydro-1,6-naphthyridin-3-amine]
- Emax at 30 µM [1]: 61%
- EC50: 0.154 µM

Structure (SMILES): Cc1cc(C(=O)N2CC(C)(F)C2)nnc1N1CCc2ncc(Nc3ccnn3C)cc2C1 [Example 560, (3-fluoro-3-methylazetidin-1-yl)(5-methyl-6-(3-((1-methyl-1H-pyrazol-5-yl)amino)-7,8-dihydro-1,6-naphthyridin-6(5H)-yl)pyridazin-3-yl)methanone]
- Emax at 30 µM [1]: 75%
- EC50: 0.064 µM

Structure (SMILES): Cc1cnc2c(c1)CN(c1nnc(C(=O)NCc3cnc4ccccc4c3)c(C)c1C)CC2 [Example 471, 4,5-dimethyl-6-(3-methyl-7,8-dihydro-1,6-naphthyridin-6(5H)-yl)-N-(quinolin-3-ylmethyl)pyridazine-3-carboxamide]
- Emax at 30 µM [1]: 91%
- EC50: 0.251 µM

Structure (SMILES): Cc1c(C#N)nnc(N2CCc3ncc(-c4cncnc4)cc3C2)c1C [compound 49, 4,5-dimethyl-6-(3-pyrimidin-5-yl-7,8-dihydro-5H-1,6-naphthyridin-6-yl)pyridazine-3-carbonitrile]
- Emax at 30 µM [1]: 60%
- EC50: 0.868 µM

Structure (SMILES): Cc1cc(-c2cnc3c(c2)CN(c2nnc(C#N)c(C)c2C)CC3)ccn1 [Example 12]
- Emax [1]: 67%
- EC50: 0.273 µM

Structure (SMILES): Cc1cc(C#N)nnc1N1CCc2ncc(C3CCC3)cc2C1 [Example 402, 6-(3-cyclobutyl-7,8-dihydro-1,6-naphthyridin-6(5H)-yl)-5-methylpyridazine-3-carbonitrile]
- Emax at 30 µM [1]: 91%
- EC50: 0.15 µM

Structure (SMILES): Cc1cc(C(=O)N2CCCn3nccc32)nnc1N1CCc2ncc(C(F)(F)F)cc2C1 [Example 503, (6,7-dihydropyrazolo[1,5-a]pyrimidin-4(5H)-yl)(5-methyl-6-(3-(trifluoromethyl)-7,8-dihydro-1,6-naphthyridin-6(5H)-yl)pyridazin-3-yl)methanone]
- Emax at 30 µM [1]: 103%
- EC50: 4.08 µM

Structure (SMILES): COc1cc(-c2cnc3c(c2)CN(c2ncc(C#N)cc2C)CC3)ccn1 [Example 338, 6-(3-(2-methoxypyridin-4-yl)-7,8-dihydro-1,6-naphthyridin-6(5H)-yl)-5-methylnicotinonitrile]
- Emax at 30 µM [1]: 91%
- EC50: 0.315 µM

Structure (SMILES): Cc1cnccc1CNC(=O)c1cnc(N2CCc3ncc(Nc4ccnn4C)cc3C2)c(C)c1 [Example 474, 5-methyl-6-(3-((1-methyl-1H-pyrazol-5-yl)amino)-7,8-dihydro-1,6-naphthyridin-6(5H)-yl)-N-((3-methylpyridin-4-yl)methyl)nicotinamide]
- Emax at 30 µM [1]: 89%
- EC50: 0.206 µM

Structure (SMILES): Cc1cc(C#N)nnc1N1CCc2ncc(CC(F)(F)F)cc2C1 [Example 422, 5-methyl-6-(3-(2,2,2-trifluoroethyl)-7,8-dihydro-1,6-naphthyridin-6(5H)-yl)pyridazine-3-carbonitrile]
- Emax at 30 µM [1]: 94%
- EC50: 0.523 µM

Structure (SMILES): Cc1nn(C)cc1-c1cnc2c(c1)CN(c1nc(CO)nc(C)c1C)CC2 [compound 226, (4-(3-(1,3-dimethyl-1H-pyrazol-4-yl)-7,8-dihydro-1,6-naphthyridin-6(5H)-yl)-5,6-dimethylpyrimidin-2-yl)methanol]
- Emax at 30 µM [1]: 89%
- EC50: 0.346 µM

Structure (SMILES): Cc1c(C#N)nnc(N2CCc3ncc(Nc4cccnc4F)cc3C2)c1C [compound 119, 6-[3-[(2-fluoro-3-pyridyl)amino]-7,8-dihydro-5H-1,6-naphthyridin-6-yl]-4,5-dimethyl-pyridazine-3-carbonitrile]
- Emax at 30 µM [1]: 82%
- EC50: 0.191 µM

Structure (SMILES): Cc1cc(C#N)cnc1N1CCc2ncc(-c3cccc(F)n3)cc2C1 [compound 168, 6-[3-(6-fluoro-2-pyridyl)-7,8-dihydro-5H-1,6-naphthyridin-6-yl]-5-methyl-pyridine-3-carbonitrile]
- Emax at 30 µM [1]: 91%
- EC50: 0.42 µM

Structure (SMILES): Cc1cc(C(=O)NCc2nccs2)cnc1N1CCc2ncc(-c3cccnc3F)cc2C1 [compound 175, 6-[3-(2-fluoro-3-pyridyl)-7,8-dihydro-5H-1,6-naphthyridin-6-yl]-5-methyl-N-(thiazol-2-ylmethyl)pyridine-3-carboxamide]
- Emax at 30 µM [1]: 89%
- EC50: 0.145 µM

Structure (SMILES): [2H]C([2H])(NC(=O)c1cc(C)c(N2CCc3ncc(N4CCCn5nccc54)cc3C2)nn1)c1ccncc1 [Example 509, 6-(3-(6,7-dihydropyrazolo[1,5-a]pyrimidin-4(5H)-yl)-7,8-dihydro-1,6-naphthyridin-6(5H)-yl)-5-methyl-N-(pyridin-4-ylmethyl-d2)pyridazine-3-carboxamide]
- Emax at 30 µM [1]: 104%
- EC50: 0.012 µM

Structure (SMILES): Cc1c(C(=O)Nc2ccncc2)nnc(N2CCc3ncc(C(F)(F)F)cc3C2)c1C [Example 466, 4,5-dimethyl-N-(pyridin-4-yl)-6-(3-(trifluoromethyl)-7,8-dihydro-1,6-naphthyridin-6(5H)-yl)pyridazine-3-carboxamide]
- Emax at 30 µM [1]: 98%
- EC50: 0.111 µM

Structure (SMILES): Cc1cc(C#N)cnc1N1CCc2ncc(Nc3cccc(Cl)c3F)cc2C1 [compound 114, 6-[3-(3-chloro-2-fluoro-anilino)-7,8-dihydro-5H-1,6-naphthyridin-6-yl]-5-methyl-pyridine-3-carbonitrile]
- Emax at 30 µM [1]: 100%
- EC50: 0.969 µM

Structure (SMILES): Cc1cc(C#N)cnc1N1CCc2ncc(N3CCOC(c4cccnc4)C3)cc2C1 (stereo not drawn) [Example 389, 5-methyl-6-(3-(2-(pyridin-3-yl)morpholino)-7,8-dihydro-1,6-naphthyridin-6(5H)-yl)nicotinonitrile]
- Emax at 30 µM [1]: 92%
- EC50: 0.942 µM

Structure (SMILES): COc1ccc(CNc2cnc3c(c2)CN(c2ncc(C#N)cc2C)CC3)cc1F [Example 5]
- Emax at 30 µM [1]: 63%
- EC50: 2.4 µM

Structure (SMILES): Cc1nc(Cl)c(C)c(N2CCc3ncc(-c4cncs4)cc3C2)n1 [compound 94, 5-[6-(6-chloro-2,5-dimethyl-pyrimidin-4-yl)-7,8-dihydro-5H-1,6-naphthyridin-3-yl]thiazole]
- Emax at 30 µM [1]: 91%
- EC50: 0.0969 µM

Structure (SMILES): Cc1c(C#N)nnc(N2CCc3ncc(N4CCC(C)n5nccc54)cc3C2)c1C (stereo not drawn) [Example 364, 4,5-dimethyl-6-(3-(7-methyl-6,7-dihydropyrazolo[1,5-a]pyrimidin-4(5H)-yl)-7,8-dihydro-1,6-naphthyridin-6(5H)-yl)pyridazine-3-carbonitrile]
- Emax at 30 µM [1]: 98%
- EC50: 0.321 µM

Structure (SMILES): Cc1c(C#N)nnc(N2CCc3ncc(N4CCO[C@H](c5ccccc5)C4)cc3C2)c1C [Example 376, (R)-4,5-dimethyl-6-(3-(2-phenylmorpholino)-7,8-dihydro-1,6-naphthyridin-6(5H)-yl)pyridazine-3-carbonitrile]
- Emax at 30 µM [1]: 90%
- EC50: 1.38 µM

Structure (SMILES): Cc1cc(C(=O)Nc2ccncc2)cnc1N1CCc2ncccc2C1 [compound 121, 6-(7,8-dihydro-5H-1,6-naphthyridin-6-yl)-5-methyl-N-(4-pyridyl)pyridine-3-carboxamide]
- Emax at 30 µM [1]: 70%
- EC50: 0.544 µM

Structure (SMILES): Cc1nc(Cl)c(C)c(N2CCc3ncc(Oc4ccccc4F)cc3C2)n1 [compound 204, 6-(6-chloro-2,5-dimethyl-pyrimidin-4-yl)-3-(2-fluorophenoxy)-7,8-dihydro-5H-1,6-naphthyridine]
- Emax at 30 µM [1]: 90%
- EC50: 0.328 µM

Structure (SMILES): Cc1nc(Cl)c(C)c(N2CCc3ncc(Nc4c(F)cccc4F)cc3C2)n1 [compound 89, 6-(6-chloro-2,5-dimethyl-pyrimidin-4-yl)-N-(2,6-difluorophenyl)-7,8-dihydro-5H-1,6-naphthyridin-3-amine]
- Emax at 30 µM [1]: 80%
- EC50: 0.716 µM

Structure (SMILES): COc1nc(C)nc(N2CCc3ncc(-c4cn(C)nc4C)cc3C2)c1C [compound 196, 3-(1,3-dimethylpyrazol-4-yl)-6-(6-methoxy-2,5-dimethyl-pyrimidin-4-yl)-7,8-dihydro-5H-1,6-naphthyridine]
- Emax at 30 µM [1]: 70%
- EC50: 1.17 µM

Structure (SMILES): Cc1cc(C(=O)NCC(C)C)cnc1N1CCc2ncc(-c3cn(C)nc3C)cc2C1 [Example 460, 6-(3-(1,3-dimethyl-1H-pyrazol-4-yl)-7,8-dihydro-1,6-naphthyridin-6(5H)-yl)-N-isobutyl-5-methylnicotinamide]
- Emax at 30 µM [1]: 71%
- EC50: 1.83 µM

Structure (SMILES): Cc1cc(C(=O)NCc2nccs2)cnc1N1CCc2ncc(-c3c(C)noc3C)cc2C1 [compound 172, 6-[3-(3,5-dimethylisoxazol-4-yl)-7,8-dihydro-5H-1,6-naphthyridin-6-yl]-5-methyl-N-(thiazol-2-ylmethyl)pyridine-3-carboxamide]
- Emax at 30 µM [1]: 93%
- EC50: 0.0785 µM

Structure (SMILES): Cc1cc(C#N)nnc1N1CCc2ncc(N3CCCn4nc(C5CC5)cc43)cc2C1 [Example 419, 6-(3-(2-cyclopropyl-6,7-dihydropyrazolo[1,5-a]pyrimidin-4(5H)-yl)-7,8-dihydro-1,6-naphthyridin-6(5H)-yl)-5-methylpyridazine-3-carbonitrile]
- Emax at 30 µM [1]: 87%
- EC50: 0.284 µM

Structure (SMILES): Cc1cc(C(=O)NCc2ccc(Cl)nc2)cnc1N1CCc2ncc(-c3cn(C)nc3C)cc2C1 [Example 481, N-((6-chloropyridin-3-yl)methyl)-6-(3-(1,3-dimethyl-1H-pyrazol-4-yl)-7,8-dihydro-1,6-naphthyridin-6(5H)-yl)-5-methylnicotinamide]
- Emax at 30 µM [1]: 58%
- EC50: 1.06 µM

From US20250230155A1 (Vanderbilt University, priority 2021, published 2025)
